Data: patent US20240279240A1, “HETEROCYCLIC DERIVATIVES AS JANUS KINASE INHIBITORS” (CHIESI FARMACEUTICI S.P.A., priority 2021, published 2024)

Experiments:
JAK 1 = JAK 1 (Homo sapiens, UniProt P23458); assay: Biochemical potency on JAK1, TR-FRET LANCE Ultra kinase assay (examples 1-99); conditions: ATP at Km (20 μM), read-out: JAK1 inhibitory activity (pIC50 class) (converted)
Procedure: (§1) The objective of this study was to assess the capability of compounds to inhibit all 4 JAK isoforms activity in a cell-free environment. Assay for JAK 1, JAK 2, JAK 3 and TYK2 were performed by Time-resolved fluorescence resonance energy transfer (TR-FRET) technology. It consists in the interaction of two labelled binding partners detected by the energy transfer from an excited donor to an acceptor dye and measurement of light emission by the acceptor dye. LANCE Ultra kinase assay was used. In presence of JAK 1, JAK 2, JAK 3 and TYK2 kinases and ATP (corresponding to Km), the ULight peptide substrate (LANCE Ulight-JAK-1 (Tyr1023) Peptide, Perkin Elmer, TRF0121) is phosphorylated. It is then captured by Eu-anti-phospho-substrate antibody (LANCE Eu-W1024 Anti-phosphotyrosine (PT66), Perkin Elmer, AD0069), which bring the Eu-chelate donor and ULight acceptor dyes into close proximity. Upon excitation at 320 nm, the Eu-chelate transfers its energy to the ULight dye, resulting in a fluorescent light emission at 665 nm.
(§2) Serial dilutions of compounds in pure DMSO are prepared from 10 mM DMSO stock solutions. Compounds were tested in 384-well plate for 11 consecutive 5-fold dilutions starting from 20 μM highest concentration (20 μM-[…]). 200 nL of compound were transferred from mother plate to test plate by using Mosquito (TTP labtech). Assay was performed in 384-well Perkin Elmer test plate in 20 μL assay volume (kinase reaction) and 40 μL total volume (stopping reagent and antibody detection reagents). In 10 μL of substrate solution (peptide+ATP) 30/50/20/10 nM of peptide and 20/0.7/0.2/12 μM of ATP were added for JAK 1, JAK 2, JAK 3 and TYK2 respectively. 10 μL of enzyme solution was added to kinase reaction at these concentrations: 0.15/0.083/0.025/0.144 ng/μL of JAK 1, JAK 2, JAK 3 and TYK2 respectively. After shaking and 1.5 h of incubation at r.t., 20 μL of Stop (10 μL EDTA) and Detection mixture (10 μL Europium-anti-phospho antibody, final: 0.5 nM) were added. Reading was performed after 1 h of incubation on a EnVision 2104 reader (Perkin Elmer).
(§3) Calculation of IC50 data, curves and QC analysis was performed by using Excel tool and GraphPadPrism software, v9. Briefly, individual concentration-effect curves are generated by plotting the logarithm of the tested concentration of tested compounds (X) vs. corresponding percent inhibition values (Y) using least squares (ordinary) fit. Best fit IC50 values are calculated using Log(inhibitor) vs. normalized response—Variable slope equation, where Y=100/(1+10^((Log IC50−X)*HillSlope)). QC criteria parameters (Z′, S:B, R2, HillSlope) were checked for every IC50 curve. Calculation of IC50 data, curves and QC analysis were made using Excel tools and GraphPadPrism software. QC criteria parameters: Z′≥0.5, Hill Slope range 0.5 to 5, S:B>2.

JAK 2 = JAK 2 (Homo sapiens, UniProt O60674); assay: Biochemical potency on JAK2, TR-FRET LANCE Ultra kinase assay (examples 1-99); conditions: ATP at Km (0.7 μM), read-out: JAK2 inhibitory activity (pIC50 class) (converted)
Procedure: as §1, §2, §3

JAK 3 = molecular target: T1, JAK 3 (Homo sapiens, UniProt P52333); assay: Biochemical potency on JAK3, TR-FRET LANCE Ultra kinase assay (examples 1-99); conditions: ATP at Km (0.2 μM), read-out: JAK3 inhibitory activity (pIC50 class) (converted)
T1 sequence (P52333 1-1124): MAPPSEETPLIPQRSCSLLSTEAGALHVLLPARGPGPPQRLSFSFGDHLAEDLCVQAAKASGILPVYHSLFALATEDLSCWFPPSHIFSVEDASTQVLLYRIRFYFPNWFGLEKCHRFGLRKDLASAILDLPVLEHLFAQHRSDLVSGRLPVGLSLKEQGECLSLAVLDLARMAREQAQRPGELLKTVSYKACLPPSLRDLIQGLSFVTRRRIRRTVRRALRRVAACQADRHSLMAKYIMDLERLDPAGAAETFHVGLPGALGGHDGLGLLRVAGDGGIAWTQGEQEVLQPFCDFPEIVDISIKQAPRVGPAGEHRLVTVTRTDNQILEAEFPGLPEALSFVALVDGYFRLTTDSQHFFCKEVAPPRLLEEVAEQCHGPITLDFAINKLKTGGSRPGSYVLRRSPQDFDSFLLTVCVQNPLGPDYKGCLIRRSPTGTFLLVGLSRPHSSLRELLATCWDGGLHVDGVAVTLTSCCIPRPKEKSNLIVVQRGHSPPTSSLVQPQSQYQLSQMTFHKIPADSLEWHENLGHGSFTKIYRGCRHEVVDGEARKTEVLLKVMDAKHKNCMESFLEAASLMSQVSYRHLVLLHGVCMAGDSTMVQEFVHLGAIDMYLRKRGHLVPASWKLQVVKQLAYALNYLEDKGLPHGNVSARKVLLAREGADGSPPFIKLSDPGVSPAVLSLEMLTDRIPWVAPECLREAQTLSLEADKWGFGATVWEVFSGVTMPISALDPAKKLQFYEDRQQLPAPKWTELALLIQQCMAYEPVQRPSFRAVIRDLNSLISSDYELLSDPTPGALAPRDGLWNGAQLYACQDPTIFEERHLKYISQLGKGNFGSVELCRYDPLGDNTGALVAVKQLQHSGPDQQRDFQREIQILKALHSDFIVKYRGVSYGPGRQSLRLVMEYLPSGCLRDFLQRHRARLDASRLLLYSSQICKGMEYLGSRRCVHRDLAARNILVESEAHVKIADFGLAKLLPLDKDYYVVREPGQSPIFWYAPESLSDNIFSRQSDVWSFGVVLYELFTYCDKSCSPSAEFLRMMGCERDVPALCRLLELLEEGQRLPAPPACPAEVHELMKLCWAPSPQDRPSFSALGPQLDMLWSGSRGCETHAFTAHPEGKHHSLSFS
Procedure: as §1, §2, §3

TYK2 = TYK2 (Homo sapiens, UniProt P29597); assay: Biochemical potency on Tyk2, TR-FRET LANCE Ultra kinase assay (examples 1-99); conditions: ATP at Km (12 μM), read-out: Tyk2 inhibitory activity (pIC50 class) (converted)
Procedure: as §1, §2, §3

JAK 1, sequence (P23458 whole entry, canonical isoform): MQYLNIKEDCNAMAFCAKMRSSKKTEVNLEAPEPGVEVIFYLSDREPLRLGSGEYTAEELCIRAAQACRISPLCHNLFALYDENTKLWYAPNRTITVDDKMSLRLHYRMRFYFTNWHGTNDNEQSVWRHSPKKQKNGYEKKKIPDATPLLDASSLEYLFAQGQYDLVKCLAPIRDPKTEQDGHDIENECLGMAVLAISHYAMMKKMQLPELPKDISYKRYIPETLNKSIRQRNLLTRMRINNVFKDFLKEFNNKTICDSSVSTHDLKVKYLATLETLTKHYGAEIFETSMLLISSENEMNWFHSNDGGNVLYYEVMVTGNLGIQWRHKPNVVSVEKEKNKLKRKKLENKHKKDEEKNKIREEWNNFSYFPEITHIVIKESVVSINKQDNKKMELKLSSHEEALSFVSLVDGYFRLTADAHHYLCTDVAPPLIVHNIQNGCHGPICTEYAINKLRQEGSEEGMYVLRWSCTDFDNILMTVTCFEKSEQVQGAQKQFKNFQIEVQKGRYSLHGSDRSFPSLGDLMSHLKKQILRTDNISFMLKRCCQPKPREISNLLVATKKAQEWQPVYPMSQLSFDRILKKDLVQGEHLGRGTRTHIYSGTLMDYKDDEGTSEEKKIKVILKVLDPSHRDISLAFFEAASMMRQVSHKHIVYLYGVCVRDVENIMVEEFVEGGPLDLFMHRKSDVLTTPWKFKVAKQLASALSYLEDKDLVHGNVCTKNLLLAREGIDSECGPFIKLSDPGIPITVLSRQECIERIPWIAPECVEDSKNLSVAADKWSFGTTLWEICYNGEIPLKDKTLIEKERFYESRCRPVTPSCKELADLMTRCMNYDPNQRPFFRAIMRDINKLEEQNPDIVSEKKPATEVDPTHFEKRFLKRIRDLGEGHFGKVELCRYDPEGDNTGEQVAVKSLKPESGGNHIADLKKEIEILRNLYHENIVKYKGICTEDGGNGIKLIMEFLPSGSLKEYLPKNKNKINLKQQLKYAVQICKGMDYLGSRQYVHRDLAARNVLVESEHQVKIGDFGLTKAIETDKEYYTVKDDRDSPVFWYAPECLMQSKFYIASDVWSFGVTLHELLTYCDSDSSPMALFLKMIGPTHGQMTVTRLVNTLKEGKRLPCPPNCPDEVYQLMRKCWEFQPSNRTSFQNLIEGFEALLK
TYK2, sequence (P29597 whole entry): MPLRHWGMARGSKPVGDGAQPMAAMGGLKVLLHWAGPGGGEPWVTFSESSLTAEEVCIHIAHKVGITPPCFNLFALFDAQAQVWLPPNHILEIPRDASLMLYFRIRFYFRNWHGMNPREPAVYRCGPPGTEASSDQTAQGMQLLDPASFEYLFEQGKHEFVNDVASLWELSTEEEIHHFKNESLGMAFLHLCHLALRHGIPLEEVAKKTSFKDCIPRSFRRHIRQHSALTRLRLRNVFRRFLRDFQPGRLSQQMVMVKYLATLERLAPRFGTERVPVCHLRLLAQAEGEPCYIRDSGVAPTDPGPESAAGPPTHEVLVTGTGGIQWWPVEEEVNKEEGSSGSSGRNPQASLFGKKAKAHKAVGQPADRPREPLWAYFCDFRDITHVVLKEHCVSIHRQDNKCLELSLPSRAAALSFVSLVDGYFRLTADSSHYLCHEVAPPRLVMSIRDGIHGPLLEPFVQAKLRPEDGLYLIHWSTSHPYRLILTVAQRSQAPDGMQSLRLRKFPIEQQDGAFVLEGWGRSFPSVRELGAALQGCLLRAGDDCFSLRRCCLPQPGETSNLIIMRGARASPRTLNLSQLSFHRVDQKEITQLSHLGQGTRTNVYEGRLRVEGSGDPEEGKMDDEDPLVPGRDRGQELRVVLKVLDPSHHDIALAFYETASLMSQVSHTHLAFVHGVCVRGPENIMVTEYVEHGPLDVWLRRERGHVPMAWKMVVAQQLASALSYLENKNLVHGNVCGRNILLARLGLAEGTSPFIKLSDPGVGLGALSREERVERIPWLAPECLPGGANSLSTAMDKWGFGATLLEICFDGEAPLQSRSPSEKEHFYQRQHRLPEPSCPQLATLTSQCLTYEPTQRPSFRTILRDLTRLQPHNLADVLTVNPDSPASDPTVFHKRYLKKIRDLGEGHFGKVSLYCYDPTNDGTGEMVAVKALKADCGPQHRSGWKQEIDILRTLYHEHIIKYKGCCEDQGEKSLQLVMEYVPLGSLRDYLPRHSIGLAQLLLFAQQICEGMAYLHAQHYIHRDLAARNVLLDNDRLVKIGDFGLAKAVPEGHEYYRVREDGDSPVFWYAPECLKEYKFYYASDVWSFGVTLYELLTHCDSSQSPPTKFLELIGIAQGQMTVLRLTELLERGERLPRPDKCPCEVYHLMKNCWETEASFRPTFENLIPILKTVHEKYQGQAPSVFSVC
JAK 2, sequence (O60674 whole entry): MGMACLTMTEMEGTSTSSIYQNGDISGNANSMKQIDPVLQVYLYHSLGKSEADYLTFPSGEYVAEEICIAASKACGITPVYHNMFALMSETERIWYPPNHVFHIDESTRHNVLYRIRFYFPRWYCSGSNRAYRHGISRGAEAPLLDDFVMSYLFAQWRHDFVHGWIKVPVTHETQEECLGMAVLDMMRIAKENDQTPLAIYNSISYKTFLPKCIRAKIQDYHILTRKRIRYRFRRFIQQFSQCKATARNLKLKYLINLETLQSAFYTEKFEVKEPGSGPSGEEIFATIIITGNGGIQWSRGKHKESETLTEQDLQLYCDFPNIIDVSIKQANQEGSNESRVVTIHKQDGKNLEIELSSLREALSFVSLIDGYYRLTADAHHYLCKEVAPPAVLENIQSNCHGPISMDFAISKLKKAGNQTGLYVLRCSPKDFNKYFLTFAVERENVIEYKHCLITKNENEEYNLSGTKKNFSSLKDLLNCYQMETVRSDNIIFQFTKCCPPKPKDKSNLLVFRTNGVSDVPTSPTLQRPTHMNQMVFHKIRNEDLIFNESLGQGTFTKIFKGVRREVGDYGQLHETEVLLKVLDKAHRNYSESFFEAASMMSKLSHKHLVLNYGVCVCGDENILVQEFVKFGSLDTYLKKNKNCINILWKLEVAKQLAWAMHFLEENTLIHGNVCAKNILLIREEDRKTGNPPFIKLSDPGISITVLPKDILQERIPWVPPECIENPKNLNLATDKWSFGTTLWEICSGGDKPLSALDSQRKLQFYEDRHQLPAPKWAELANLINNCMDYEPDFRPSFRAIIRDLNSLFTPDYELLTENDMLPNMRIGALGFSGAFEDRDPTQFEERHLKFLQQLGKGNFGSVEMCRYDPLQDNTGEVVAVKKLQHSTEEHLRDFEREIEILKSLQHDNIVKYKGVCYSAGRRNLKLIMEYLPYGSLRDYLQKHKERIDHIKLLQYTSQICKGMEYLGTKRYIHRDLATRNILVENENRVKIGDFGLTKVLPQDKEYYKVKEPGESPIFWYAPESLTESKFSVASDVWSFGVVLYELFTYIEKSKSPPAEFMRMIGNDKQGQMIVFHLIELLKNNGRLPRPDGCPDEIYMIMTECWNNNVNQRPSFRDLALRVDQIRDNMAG

COc1ccc(S(=O)(=O)NCC2CN(C)C2)cc1-n1nc(C)c2cnc(-c3cnn4cccnc34)cc21 [Example 17, 4-methoxy-3-(3-methyl-6-(pyrazolo[1,5-a]pyrimidin-3-yl)-1H-pyrazolo[4,3-c]pyridin-1-yl)-N-((1-methylazetidin-3-yl)methyl)benzenesulfonamide]
IC50 (JAK 1): 5.01 to 50.1 nM | IC50 (JAK 2): 5.01 to 50.1 nM | IC50 (JAK 3): > 50.1 nM | IC50 (TYK2): > 50.1 nM

COc1ccc(S(=O)(=O)NCCN2CCN(C)CC2)cc1-n1nc(C)c2cnc(-c3cnn4cccnc34)cc21 [Example 18, 4-methoxy-3-(3-methyl-6-(pyrazolo[1,5-a]pyrimidin-3-yl)-1H-pyrazolo[4,3-c]pyridin-1-yl)-N-(2-(4-methylpiperazin-1-yl)ethyl)benzenesulfonamide]
IC50 (JAK 1): 5.01 to 50.1 nM | IC50 (JAK 2): 5.01 to 50.1 nM | IC50 (JAK 3): > 50.1 nM | IC50 (TYK2): > 50.1 nM

COc1ccc(S(=O)(=O)NCCN2CCOCC2)cc1-n1nc(C)c2cnc(-c3cnn4cccnc34)cc21 [Example 19, 4-methoxy-3-(3-methyl-6-(pyrazolo[1,5-a]pyrimidin-3-yl)-1H-pyrazolo[4,3-c]pyridin-1-yl)-N-(2-morpholinoethyl)benzenesulfonamide]
IC50 (JAK 1): 5.01 to 50.1 nM | IC50 (JAK 2): 5.01 to 50.1 nM | IC50 (JAK 3): > 50.1 nM | IC50 (TYK2): > 50.1 nM

COCCS(=O)(=O)c1ccc(OC(F)F)c(-n2nc(C)c3cnc(-c4cnn5cccnc45)cc32)c1 [Example 20, 1-(2-(difluoromethoxy)-5-((2-methoxyethyl)sulfonyl)phenyl)-3-methyl-6-(pyrazolo[1,5-a]pyrimidin-3-yl)-1H-pyrazolo[4,3-c]pyridine]
IC50 (JAK 1): 5.01 to 50.1 nM | IC50 (JAK 2): ≤ 5.01 nM | IC50 (JAK 3): ≤ 5.01 nM | IC50 (TYK2): 5.01 to 50.1 nM

Cc1nn(-c2cc(S(=O)(=O)CCCN(C)C)ccc2OC(F)F)c2cc(-c3cnn4cccnc34)ncc12 [Example 21, 3-((4-(difluoromethoxy)-3-(3-methyl-6-(pyrazolo[1,5-a]pyrimidin-3-yl)-1H-pyrazolo[4,3-c]pyridin-1-yl)phenyl)sulfonyl)-N,N-dimethylpropan-1-amine]
IC50 (JAK 1): 5.01 to 50.1 nM | IC50 (JAK 2): 5.01 to 50.1 nM | IC50 (JAK 3): 5.01 to 50.1 nM | IC50 (TYK2): > 50.1 nM

Cc1nn(-c2cc(S(=O)(=O)CCO)ccc2OC(F)F)c2cc(-c3cnn4cccnc34)ncc12 [Example 22, 2-((4-(difluoromethoxy)-3-(3-methyl-6-(pyrazolo[1,5-a]pyrimidin-3-yl)-1H-pyrazolo[4,3-c]pyridin-1-yl)phenyl)sulfonyl)ethan-1-ol]
IC50 (JAK 1): 5.01 to 50.1 nM | IC50 (JAK 2): ≤ 5.01 nM | IC50 (JAK 3): ≤ 5.01 nM | IC50 (TYK2): 5.01 to 50.1 nM

Cc1nn(-c2cc(S(=O)(=O)CCN3CCCCC3)ccc2OC(F)F)c2cc(-c3cnn4cccnc34)ncc12 [Example 23, 1-(2-(difluoromethoxy)-5-((2-(piperidin-1-yl)ethyl)sulfonyl)phenyl)-3-methyl-6-(pyrazolo[1,5-a]pyrimidin-3-yl)-1H-pyrazolo[4,3-c]pyridine]
IC50 (JAK 1): 5.01 to 50.1 nM | IC50 (JAK 2): 5.01 to 50.1 nM | IC50 (JAK 3): 5.01 to 50.1 nM | IC50 (TYK2): > 50.1 nM

CC(=O)N1CCC(S(=O)(=O)c2ccc(OC(F)F)c(-n3nc(C)c4cnc(-c5cnn6cccnc56)cc43)c2)C1 (centres unmarked) [Example 24, 1-(3-((4-(difluoromethoxy)-3-(3-methyl-6-(pyrazolo[1,5-a]pyrimidin-3-yl)-1H-pyrazolo[4,3-c]pyridin-1-yl)phenyl)sulfonyl)pyrrolidin-1-yl)ethan-1-one]
IC50 (JAK 1): 5.01 to 50.1 nM | IC50 (JAK 2): ≤ 5.01 nM | IC50 (JAK 3): ≤ 5.01 nM | IC50 (TYK2): > 50.1 nM

COc1cccc(S(=O)(=O)c2ccc(OC(F)F)c(-n3nc(C)c4cnc(-c5cnn6cccnc56)cc43)c2)c1 [Example 25, 1-(2-(difluoromethoxy)-5-((3-methoxyphenyl)sulfonyl)phenyl)-3-methyl-6-(pyrazolo[1,5-a]pyrimidin-3-yl)-1H-pyrazolo[4,3-c]pyridine]
IC50 (JAK 1): 5.01 to 50.1 nM | IC50 (JAK 2): ≤ 5.01 nM | IC50 (JAK 3): ≤ 5.01 nM | IC50 (TYK2): 5.01 to 50.1 nM

Cc1nn(-c2cc(S(C)(=O)=O)ccc2OC(F)F)c2cc(-c3cnn4cccnc34)ncc12 [Example 26, 1-(2-(difluoromethoxy)-5-(methylsulfonyl)phenyl)-3-methyl-6-(pyrazolo[1,5-a]pyrimidin-3-yl)-1H-pyrazolo[4,3-c]pyridine]
IC50 (JAK 1): ≤ 5.01 nM | IC50 (JAK 2): ≤ 5.01 nM | IC50 (JAK 3): ≤ 5.01 nM | IC50 (TYK2): 5.01 to 50.1 nM

COc1cc(O)ccc1-n1nc(C)c2cnc(-c3cnn4cccnc34)cc21 [Example 27, 3-methoxy-4-(3-methyl-6-(pyrazolo[1,5-a]pyrimidin-3-yl)-1H-pyrazolo[4,3-c]pyridin-1-yl)phenol]
IC50 (JAK 1): 5.01 to 50.1 nM | IC50 (JAK 2): ≤ 5.01 nM | IC50 (JAK 3): 5.01 to 50.1 nM | IC50 (TYK2): > 50.1 nM

N#CCc1nn(-c2cc(Cl)ccc2OC(F)F)c2cc(-c3cnn4cccnc34)ncc12 [Example 28, 2-(1-(5-chloro-2-(difluoromethoxy)phenyl)-6-(pyrazolo[1,5-a]pyrimidin-3-yl)-1H-pyrazolo[4,3-c]pyridin-3-yl)acetonitrile]
IC50 (JAK 1): ≤ 5.01 nM | IC50 (JAK 2): ≤ 5.01 nM | IC50 (JAK 3): ≤ 5.01 nM | IC50 (TYK2): 5.01 to 50.1 nM

OCc1nn(-c2cc(Cl)ccc2OC(F)F)c2cc(-c3cnn4cccnc34)ncc12 [Example 29, (1-(5-chloro-2-(difluoromethoxy)phenyl)-6-(pyrazolo[1,5-a]pyrimidin-3-yl)-1H-pyrazolo[4,3-c]pyridin-3-yl)methanol]
IC50 (JAK 1): 5.01 to 50.1 nM | IC50 (JAK 2): ≤ 5.01 nM | IC50 (JAK 3): ≤ 5.01 nM | IC50 (TYK2): 5.01 to 50.1 nM

CN(C)Cc1nn(-c2cc(Cl)ccc2OC(F)F)c2cc(-c3cnn4cccnc34)ncc12 [Example 30, 1-(1-(5-chloro-2-(difluoromethoxy)phenyl)-6-(pyrazolo[1,5-a]pyrimidin-3-yl)-1H-pyrazolo[4,3-c]pyridin-3-yl)-N,N-dimethylmethanamine]
IC50 (JAK 1): 5.01 to 50.1 nM | IC50 (JAK 2): 5.01 to 50.1 nM | IC50 (JAK 3): 5.01 to 50.1 nM | IC50 (TYK2): > 50.1 nM
